We go through 3 compounds from patent US7718612B2, “Pyridazinonyl macrocyclic hepatitis C serine protease inhibitors” (Enanta Pharmaceuticals, Inc., priority 2006, dated 2010).

Where two headings read alike, the source gives them in different places. A value given as a limit tells only on which side of the number the result lay.

Assay [1] relates to HCV replicon RNA in Huh 11-7 cell line. Nature of the assay: Cell-Based Replicon Assay. The following applies: Hepatitis C virus, 96 h, read-out: EC50 in the Cell-Based Replicon Assay. As for the experimental part:
Quantification of HCV replicon RNA (HCV Cell Based Assay) is accomplished using the Huh 11-7 cell line (Lohmann, et al Science 285:110-113, 1999). Cells are seeded at 4×10^3 cells/well in 96 well plates and fed media containing DMEM (high glucose), 10% fetal calf serum, penicillin-streptomycin and non-essential amino acids. Cells are incubated in a 7.5% CO2 incubator at 37° C. At the end of the incubation period, total RNA is extracted and purified from cells using Ambion RNAqueous 96 Kit (Catalog No. AM1812). To amplify the HCV RNA so that sufficient material can be detected by an HCV specific probe (below), primers specific for HCV (below) mediate both the reverse transcription of the HCV RNA and the amplification of the cDNA by polymerase chain reaction (PCR) using the TaqMan One-Step RT-PCR Master Mix Kit (Applied Biosystems catalog no. 4309169). The nucleotide sequences of the RT-PCR primers, which are located in the NS5B region of the HCV genome, are the following:
Detection of the RT-PCR product is accomplished using the Applied Biosystems (ABI) Prism 7500 Sequence Detection System (SDS) that detects the fluorescence that is emitted when the probe, which is labeled with a fluorescence reporter dye and a quencher dye, is degraded during the PCR reaction. The increase in the amount of fluorescence is measured during each cycle of PCR and reflects the increasing amount of RT-PCR product. Specifically, quantification is based on the threshold cycle, where the amplification plot crosses a defined fluorescence threshold. […] The data is analyzed using the ABI SDS program version 1.7. […]
The RT-PCR product was detected using the following labeled probe: […]
To normalize the data to an internal control molecule within the cellular RNA, RT-PCR is performed on the cellular messenger RNA glyceraldehyde-3-phosphate dehydrogenase (GAPDH). […] GAPDH RT-PCR is performed on the same RNA sample from which the HCV copy number is determined. […] The ratio of HCV/GAPDH RNA is used to calculate the activity of compounds evaluated for inhibition of HCV RNA replication. […]

The target of assay [2] is T1, full-length NS3 HCV protease 1b tethered with NS4A cofactor (Hepatitis C virus genotype 1b, UniProt Q9WMX2).
T1 construct: full-length NS3 HCV protease 1b tethered with NS4A cofactor; NS4A cofactor (tethered, fused to NS3)
Nature of the assay: NS3/NS4a Protease Enzyme Assay. The format is biochemical. Here is the method:
HCV protease activity and inhibition is assayed using an internally quenched fluorogenic substrate. A DABCYL and an EDANS group are attached to opposite ends of a short peptide. Quenching of the EDANS fluorescence by the DABCYL group is relieved upon proteolytic cleavage. Fluorescence is measured with a Molecular Devices Fluoromax (or equivalent) using an excitation wavelength of 355 nm and an emission wavelength of 485 nm.
The assay is run in Corning white half-area 96-well plates (VWR 29444-312 [Corning 3693]) with full-length NS3 HCV protease 1b tethered with NS4A cofactor (final enzyme concentration 1 to 15 nM). The assay buffer is complemented with 10 μM NS4A cofactor Pep 4A (Anaspec 25336 or in-house, MW 1424.8). RET S1 (Ac-Asp-Glu-Asp(EDANS)-Glu-Glu-Abu-[COO]Ala-Ser-Lys-(DABCYL)-NH2, AnaSpec 22991, MW 1548.6) is used as the fluorogenic peptide substrate. The assay buffer contains 50 mM Hepes at pH 7.5, 30 mM NaCl and 10 mM BME. The enzyme reaction is followed over a 30 minutes time course at room temperature in the absence and presence of inhibitors.
The peptide inhibitors HCV Inh 1 (Anaspec 25345, MW 796.8) Ac-Asp-Glu-Met-Glu-Glu-Cys-OH, [−20° C.] and HCV Inh 2 (Anaspec 25346, MW 913.1) Ac-Asp-Glu-Dif-Cha-Cys-OH, are used as reference compounds.
IC50 values are calculated using XLFit in ActivityBase (IDBS) using equation 205: y=A+((B−A)/(1+((C/x)^D))).

The mark [3] stands for this setting: Huh 11-7 cells, 4 days, HCV/GAPDH RNA ratio.

T1 sequence (Q9WMX2 1013-1657, looked up, natural form): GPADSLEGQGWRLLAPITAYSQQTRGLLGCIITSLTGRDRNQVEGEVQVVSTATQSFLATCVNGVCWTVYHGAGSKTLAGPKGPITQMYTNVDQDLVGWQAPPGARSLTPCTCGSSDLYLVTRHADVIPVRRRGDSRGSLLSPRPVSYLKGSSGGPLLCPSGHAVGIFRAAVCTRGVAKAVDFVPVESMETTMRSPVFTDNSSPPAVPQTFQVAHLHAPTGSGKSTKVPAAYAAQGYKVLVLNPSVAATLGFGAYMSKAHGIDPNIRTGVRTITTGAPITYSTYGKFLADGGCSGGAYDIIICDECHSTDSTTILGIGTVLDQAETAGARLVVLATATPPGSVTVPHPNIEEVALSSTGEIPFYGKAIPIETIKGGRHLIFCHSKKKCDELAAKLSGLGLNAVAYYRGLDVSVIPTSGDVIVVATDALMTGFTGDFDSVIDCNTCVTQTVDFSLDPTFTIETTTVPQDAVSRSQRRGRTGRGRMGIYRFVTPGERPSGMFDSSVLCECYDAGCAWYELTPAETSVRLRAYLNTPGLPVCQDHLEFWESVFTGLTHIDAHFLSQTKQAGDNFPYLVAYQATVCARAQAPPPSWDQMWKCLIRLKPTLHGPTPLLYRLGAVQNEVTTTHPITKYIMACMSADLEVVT

As for `COc1c(-c2cccc3ccccc23)cnn(C2CC3C(=O)NC4(C(=O)NS(=O)(=O)C5CC5)CC4C=CCCCCCC(NC(=O)c4cccs4)C(=O)N3C2)c1=O` (stereo not drawn) [Example 34], the EC50 in assay [1] (setting [3]) was less than 200 pM. The same compound showed an IC50 in assay [2] of 200 pM.
As for `COc1c(-c2cccc3ccccc23)cnn(C2CC3C(=O)NC4(C(=O)NS(=O)(=O)C5CC5)CC4C=CCCCCCC(NC(=O)OC4CCCC4)C(=O)N3C2)c1=O` (stereo not drawn) [Example 32], the EC50 in assay [1] (setting [3]) is less than 200 pM. In assay [2], inhibition was half-maximal at 400 pM (IC50).
With `COc1c(-c2cccc3ccccc23)cnn([C@@H]2C[C@H]3C(=O)N[C@]4(C(=O)NS(=O)(=O)C5CC5)C[C@H]4/C=C\CCCCC[C@H](NC(=O)OC(C)(C)C)C(=O)N3C2)c1=O` [Example 30], the EC50 in assay [1] was less than 200 pM. Further, in assay [2], it took 100 pM to reach half-maximal inhibition (IC50).

The EC50 is the concentration giving half of the maximal effect. By IC50 is commonly meant the midpoint of a concentration-inhibition curve. Low readings indicate inhibition by little substance, high ones a need for much substance.
